“Also recorded” adds a separate entry of the source. Read-outs that look alike come from different tables or passages of the source.

Assay type in all cases: cell-based, human
The subject of one experiment is NKG2A+/NKG2C- NK cells. Briefly: NK cell activation assay with peptide-pulsed K562/HLA-E cells, NKG2A+/NKG2C- NK cells. The settings on record: K562/HLA-E target cells, 300 µM peptide ([…] µM BFAR263-271), E:T 2:1, 6 h; degranulation (CD107a), IFN-γ, TNF, CCL3; flow cytometry. On the procedure:
(§1) We hypothesized that our predicted proteome-derived peptides could affect NK cell activation through interactions with CD94/NKG2A and CD94/NKG2C. To investigate, we performed cell-based activation assays on primary NK cells (Fig. 4A). NK cells were co-incubated with peptide-pulsed HLA-E-expressing K562 cells, as described previously. The parental K562 human myelogenous leukemia cell line is a typical target to measure NK cell cytotoxicity and activation, allowing for assessment of both NKG2A-mediated inhibition and NKG2C-mediated activation. […] NKG2A^-/NKG2C^- NK cells served as internal control as these should be unaffected by peptide-HLA-E complexes (Supplemental Fig. 12).
(§2) Fig. 4 NK cell stimulation assays. Assessment of effects of peptides on NK cell activity through incubation of NK cells, peptides, and (A) K562/HLA-E or (B) RMA-S/HLA-E target cells. […] Replicates for individual peptides are from different donors, with solid black lines indicating mean values. […] Representative gating for NKG2A^+/NKG2C^- and NKG2A^-/NKG2C^+ NK cells is shown in Supplemental Fig. 14. Source data are provided as a Source Data file.
(§3) All analyses of human data were carried out in compliance with the relevant ethical regulations. Healthy blood donors gave informed consent at DRK Blutspendedienst Nord-Ost, Dresden, Germany, and buffy coats were obtained as approved by Charité ethics committee (EA4/059/17). PBMCs were isolated from human CMV-seropositive buffy coats by density centrifugation over Ficoll Paque Plus (GE Healthcare) and screened for the presence of NKG2C^+ NK cell expansions by flow cytometry to have sufficient frequencies of single-positive cells for parallel assessment of activation and inhibition via HLA-E[47]. Total NK cells from donors with NKG2C^+ expansions (>10% NKG2A^-/NKG2C^+ NK cells) were enriched with CD56 microbeads (Miltenyi Biotec) and cryopreserved in FBS with 10% v/v DMSO. After thawing, NK cells were washed with complete medium, stained with antibodies and Fixable Viability Dye eFluor 780 (Thermo Fisher) for 15 min at 4 °C in PBS, sorted as viable CD56^+ CD3^− cells, and rested in complete media overnight. […] Brefeldin A and Monensin (BD Biosciences) were added after a 1 h culture period. After an additional 5 h, the stimulation was stopped by centrifugation at 4 °C. Cells underwent surface staining, followed by fixation and intracellular staining using Inside Stain Kit (Miltenyi Biotec). Samples were analyzed by flow cytometry on an LSR Fortessa (BD Biosciences). Inhibition of NKG2A^+ NK cells and activation of NKG2C^+ NK cells was assessed by gating on the respective single-positive populations (Supplemental Fig. 14). Antibodies are listed in Supplemental Table 1: anti-human CD56 PE/Dazzle 594 (1:200 dilution), CD3 APC-eFluor 780 (1:50 dilution), anti-human CD159a (NKG2A) Biotin REAfinity (1:50 dilution), anti-human CD159c (NKG2C) PE REAfinity (1:100 dilution), anti-human CD107a (LAMP-1) Alexa Fluor 488 (1:400 dilution), anti-human IFN-γ PE-Vio 770 REAfinity (1:50 dilution), anti-human TNF-α Brilliant Violet 605 (1:50 dilution), anti-human CCL3 (MIP-1α) REAfinity (1:25 dilution).
In general terms: In flow cytometry, cells or beads pass a laser one at a time.

The next experiment deals with NKG2A-/NKG2C+ NK cells. Briefly: NK cell activation assay with peptide-pulsed K562/HLA-E cells, NKG2A-/NKG2C+ NK cells. The settings on record: K562/HLA-E target cells, 300 µM peptide ([…] µM BFAR263-271), E:T 2:1, 6 h; degranulation (CD107a), IFN-γ, TNF, CCL3; flow cytometry. On the procedure: as §1, §2, §3
The next experiment relates to HLA-E. Briefly: HLA-E surface stabilization assay with RMA-S/HLA-E cells. The settings on record: peptide 3-300 µM (Fig. 3: 30 µM) in OptiMEM, 16 h, 37 °C, anti-HLA-E 3D12, flow cytometry, n = 4 replicate experiments. On the procedure:
To probe top-predicted proteome-derived peptides (Tables 2 and 3) for HLA-E binding, we assessed their ability to stabilize surface-expressed HLA-E on RMA-S/HLA-E cells, a TAP-deficient mouse cell line engineered to express HLA-E and human β2M (Fig. 3 and Supplemental Fig. 8)[47].
Fig. 3 Peptide stabilization of HLA-E surface expression. Assessment of peptide-HLA-E binding via HLA-E surface stabilization assay with RMA-S/HLA-E cells incubated with 30 μM peptide. HLA-E expression is detected with an anti-HLA-E antibody. Measurements from n = 4 replicate experiments are shown, with solid black lines indicating mean values. […] Source data are provided as a Source Data file.
RMA-S/HLA-E cells were incubated with serial dilutions of peptides (3–300 µM, Genscript) in OptiMEM (ThermoFisher) for 16 h at 37 °C. Cells were washed with PBS, stained for HLA-E (Clone 3D12, Biolegend, 1:200 dilution) for 15 min at room temperature and analyzed by flow cytometry (analysis in FlowJo version 10). Peptide UBAC2_275-279 was ordered as a 5mer peptide (WNRLF) given the similarity with other WN peptides and hypothesis of a truncated peptide binding in the HLA-E groove. […] Measurements from replicate experiments are plotted in Fig. 3 and Supplemental Fig. 8.

For a further experiment, the system named is NKG2C+ NK cells. Briefly: NK cell activation assay with peptide-pulsed RMA-S/HLA-E cells. Particulars: for average percent CD107a+: NKG2C+ NK cells with RMA-S/HLA-E cells, Fig. 4B, stated in author rebuttal. Here is the method: as §2
In contrast to K562 cell lines which are targets for human NK cells, RMA-S cells (a TAP-deficient mouse cell line)[48] are inert to human NK cells and thus will not activate NK cells absent engagement of an activating receptor on the NK cells. […] We performed additional NK cell activation assays with RMA-S/HLA-E cells (Fig. 4B).
as §3

Setting [1] is: RMA-S/HLA-E target cells, 300 µM peptide ([…] µM BFAR263-271), E:T 2:1, 6 h, flow cytometry, n = 3 (n = 2 for some) donors.

For the substance “RMPPRSVLL [INTS1_260-268, human peptide from Integrator complex subunit 1]”, the “inhibitory effects on NKG2A+ cells” value in the experiment on NKG2A+/NKG2C- NK cells is reported as “strong inhibitory effects”. Further, the “activating effects on NKG2C+ cells” value in the experiment on NKG2A-/NKG2C+ NK cells was “strong activating effects”. In addition, in the experiment on HLA-E, the “stabilization of HLA-E surface expression” value (“stabilization” below) was “HLA-E stabilization matching VMAPRTLFL peptide; also recorded: strong stabilization”.

On to WNRILPN [length variant of WN peptide], for which the “stabilization” value in the experiment with HLA-E is listed as “did not stabilize HLA-E surface”.

As for “VMGDRSVLY [EMC1_725-733, human peptide from ER membrane protein complex subunit 1]”, the “stabilization” value in the experiment on HLA-E is “no detectable binding; also recorded: no stabilizing effects”.

As to “NMPARTVLF [MTREX490-498, human peptide from Exosome RNA helicase MTR4]”, the “inhibitory effects on NKG2A+ cells” value in the experiment on NKG2A+/NKG2C- NK cells is on record as “strong inhibitory effects”. Besides, the “activating effects on NKG2C+ cells” value with NKG2A-/NKG2C+ NK cells is on record as “strong activating effects”. In the experiment on HLA-E, the “stabilization” value is on record as “strong binding that is weaker than VMAPRTLFL; also recorded: strong stabilization”. The “NKG2C-mediated NK cell activation” value in the experiment with NKG2C+ NK cells (setting [1]) is recorded as “detectable activation, though below both positive control examples”.

In the case of “WNRILPNAY [library-derived WN 9mer peptide (P1 Trp, P2 Asn)]”, the “stabilization” value in the experiment with HLA-E is listed as “did not stabilize HLA-E surface”.

Take “VMADKSIFY [OR5D14_88-96, human peptide from Olfactory receptor 5D14]”: the “stabilization” value in the experiment with HLA-E is on record as “no detectable binding; also recorded: no stabilizing effects”.

Turning to WNRIL [length variant of WN peptide], the “stabilization” value with HLA-E is listed as “did not stabilize HLA-E surface”.

On to “TLPERTLYL [ECEL1_269-277, human peptide from Endothelin-converting enzyme-like 1]”, for which the “inhibitory effects on NKG2A+ cells” value in the experiment on NKG2A+/NKG2C- NK cells is on record as “strong inhibitory effects”. Besides, the “activating effects on NKG2C+ cells” value in the experiment with NKG2A-/NKG2C+ NK cells is on record as “strong activating effects”. Further, in the experiment with HLA-E, the “stabilization” value is recorded as “HLA-E stabilization matching VMAPRTLFL peptide; also recorded: strong stabilization”. Moreover, the “NKG2C-mediated NK cell activation” value with NKG2C+ NK cells is “activation similar to the weaker positive control ([…]) or between the two positive controls”.

As to “TGAARSFFF [UL102_292-300, CMV peptide from DNA helicase/primase complex-associated protein]”, the “stabilization” value with HLA-E is given as “no detectable binding; also recorded: no stabilizing effects”.

With WNRILP [length variant of WN peptide], in the experiment with HLA-E, the “stabilization” value is “did not stabilize HLA-E surface”.

Consider “WNRLF [UBAC2_275-279, UBAC2 peptide ordered and tested as a 5mer peptide (WNRLF)]”, for which, in the experiment on HLA-E, the “stabilization” value is listed as “no detectable binding; also recorded: no stabilizing effects”.

Take “VMAPRTLIL [canonical signal peptide / CMV UL40-derived HLA-E ligand; positive control, reference compound]”: in the experiment with NKG2C+ NK cells (setting [1]), the “NKG2C-mediated NK cell activation” value is given as “weaker positive control”.

For “TAPARTMFL [PISD55-63, human peptide from Phosphatidylserine decarboxylase proenzyme, mitochondrial]”, the “inhibitory effects on NKG2A+ cells” value in the experiment on NKG2A+/NKG2C- NK cells is listed as “minimal inhibitory effects”. Moreover, in the experiment with NKG2A-/NKG2C+ NK cells, the “activating effects on NKG2C+ cells” value was “clear activating effects”. Further, the “stabilization” value in the experiment on HLA-E was “strong binding that is weaker than VMAPRTLFL; also recorded: strong stabilization”. Further, in the experiment on NKG2C+ NK cells, the “NKG2C-mediated NK cell activation” value was “detectable activation, though below both positive control examples” and the “average percent CD107a+” value worked out at 7.8%.

As for “VMAPQSLLL [negative control peptide, reference compound]”, in the experiment with NKG2C+ NK cells, the “NKG2C-mediated NK cell activation” value is recorded as “Minimal activation” and the “average percent CD107a+” value is recorded as 1.1%.

Regarding “FLPNRSLLF [SLC52A3_354-362, human peptide from Solute carrier family 52, riboflavin transporter, member 3]”, the “inhibitory effects on NKG2A+ cells” value in the experiment with NKG2A+/NKG2C- NK cells is listed as “more moderate inhibitory effects”. Besides, in the experiment with NKG2A-/NKG2C+ NK cells, the “activating effects on NKG2C+ cells” value is given as “strong activating effects”. The “stabilization” value with HLA-E is reported as “strong binding that is weaker than VMAPRTLFL; also recorded: strong stabilization”. Also, the “NKG2C-mediated NK cell activation” value in the experiment with NKG2C+ NK cells is “activation similar to the weaker positive control ([…]) or between the two positive controls”.

For WNRILPNA [length variant of WN peptide], the “stabilization” value in the experiment with HLA-E is on record as “did not stabilize HLA-E surface”.

As to “SVPLKTRFL [UL120_71-79, BE/33/2010, divergent UL120 peptide of CMV strain BE/33/2010]”, the “inhibitory effects on NKG2A+ cells” value with NKG2A+/NKG2C- NK cells was “minimal effects”. The “activating effects on NKG2C+ cells” value in the experiment on NKG2A-/NKG2C+ NK cells is on record as “minimal effects”. The “stabilization” value in the experiment on HLA-E is on record as “weaker but detectable stabilization”.

Regarding “VMPPRTLLL [HLA-A3-11, human peptide from HLA class I histocompatibility antigen]”, the “inhibitory effects on NKG2A+ cells” value with NKG2A+/NKG2C- NK cells is reported as “strong inhibitory effects”. Moreover, the “activating effects on NKG2C+ cells” value in the experiment with NKG2A-/NKG2C+ NK cells was “strong activating effects”. Besides, the “stabilization” value in the experiment on HLA-E is given as “HLA-E stabilization matching VMAPRTLFL peptide; also recorded: strong stabilization”. For the same substance, in the experiment on NKG2C+ NK cells, the “NKG2C-mediated NK cell activation” value was “activation similar to the weaker positive control ([…]) or between the two positive controls”.

Consider “ILTDRSLWL [FBXO41_670-678, human peptide from F-box only protein 41]”, for which the “inhibitory effects on NKG2A+ cells” value with NKG2A+/NKG2C- NK cells is “more moderate inhibitory effects”. Also, the “activating effects on NKG2C+ cells” value in the experiment with NKG2A-/NKG2C+ NK cells is on record as “strong activating effects”. The “stabilization” value in the experiment with HLA-E is “strong binding that is weaker than VMAPRTLFL; also recorded: strong stabilization”. The “NKG2C-mediated NK cell activation” value with NKG2C+ NK cells (setting [1]) was “activation at the level of the strongest positive control binder (VMAPRTLFL)”.

Take “VMPGRTLCF [TACR3_226-234, human peptide from Neuromedin-K receptor]”: in the experiment with NKG2A+/NKG2C- NK cells, the “inhibitory effects on NKG2A+ cells” value was “strong inhibitory effects”. For the same substance, the “activating effects on NKG2C+ cells” value in the experiment with NKG2A-/NKG2C+ NK cells is recorded as “strong activating effects”. Also, the “stabilization” value in the experiment on HLA-E was “HLA-E stabilization matching VMAPRTLFL peptide; also recorded: strong stabilization”. Besides, the “NKG2C-mediated NK cell activation” value with NKG2C+ NK cells was “activation similar to the weaker positive control ([…]) or between the two positive controls”.
